{"source": "patent US20240423203A1", "about": "“Herbicidally Active Combination for Agricultural Applications” (priority 2021, published 2024)", "key": {"[1]": {"tested_on": "Echinochloa colona", "assay": "Herbicide activity on Echinochloa colona, visual evaluation 20 DAT (Example 6)", "assay_type": "in vivo", "text": "Echinochloa colona is a cosmopolitan weed common in crops (mainly rice, maize and vegetables), gardens, roadsides, disturbed sites, waste areas and pastures. It also grows along waterways, on the margins of lakes and ponds, in swamps and wetlands, and in other damp habitats. It has the potential to invade natural areas and completely outcompete native vegetation. This weed pose a significant threat to rice productivity globally and are usually reported as noxious weeds in several economically important crops around the world. E. colona has vigorous growth traits and high seed production since each E. colona plant can produce up to 42,000 seeds. The experiment in Echinochloa colona plants was carried out in independent pots and in four replications. […] The products were applied by spraying. The herbicide activity was visually evaluated 20 days after treatment."}, "[2]": {"tested_on": "potato plants", "assay": "Desiccant action on potato leaf, field plots, visual evaluation 15 DAA (Example 3)", "assay_type": "in vivo", "conditions": "for Desiccation (%): potato leaf, 15 DAA; for effect in combination with the herbicides tested (synergistic / antagonist): potato desiccation, Colby analysis", "text": "The desiccant was applied by spraying."}, "[3]": {"tested_on": "potato plants", "assay": "Desiccant action on potato leaf of carfentrazone-ethyl with polyferulates of different molecular weight (Example 4)", "conditions": "application rate 25 g a.i. ha^−1, 15 DAA"}, "[4]": {"tested_on": "potato plants", "assay": "Greenhouse potato trial: fresh weight reduction and quantum yield of PSII (Example 7)", "assay_type": "in vivo", "conditions": "for Fresh weight of the plants (% of control): 14 DAA; for Quantum yield of PSII: three days after foliar application", "experimental": "The trial was carried out in a greenhouse in potato plants. The desiccant (pyraflufen-ethyl, a Protoporphyrinogen Oxidase (PPO) Inhibitor) was applied by spraying at different percentage of the recommended doses alone or combined with polyferulates. The effect of the herbicide was first evaluated by measurements of the photosynthetic capacity of treated leaves using the QY (quantum yield) three days after foliar application and the final desiccation efficiency was evaluated 14 days after treatment. The herbicide activity (desiccation efficiency) was evaluated as fresh weight reduction respect to untreated plants (control) an expressed in percentage."}, "[5]": {"tested_on": "potato plants", "assay": "Desiccant action on potato leaf in function of polyferulate application timing (Example 8)", "assay_type": "in vivo", "conditions": "application rate 10.6 g a.i. ha^−1; 15 days after treatment", "text": "Polyferulates were applied the day before the desiccant spraying (D−1), in tank mix combination with the desiccant (D−0) or the day after the desiccant spraying (D+1). […] The desiccant was applied by spraying."}, "[6]": {"tested_on": "Tomato (Solanum lycopersicum) plants", "assay": "Herbicide uptake into plant foliage: distribution of pyraflufen-ethyl between leaf fractions (Example 9)", "assay_type": "in vivo", "conditions": "tomato leaves", "experimental": "Tomato (Solanum lycopersicum) plants were sprayed with a diluted solution of pyraflufen-ethyl herbicide or a diluted solution of pyraflufen-ethyl herbicide combined with polyferulates. Samples of treated leaves were taken at 2 h and 24 h after treatment. An extraction procedure following successive steps was used to describe the distribution of pyraflufen-ethyl residues on and in plant leaves. Four fractions of pesticide residues were recovered: (i) the fraction of pesticide susceptible to wash-off by rain that was assumed to correspond to the water-washable fraction, (ii) the fraction of pesticide having adsorbed on the leaf surface that was assumed to correspond to the ethanol-extracted fraction, (iii) the fraction of pesticide having penetrated into the cuticle that was assumed to correspond to the hexane-extracted fraction, and (iv) the fraction of pesticide having penetrated into the foliar tissues that was assumed to correspond to the bound residues fraction."}, "[7]": {"tested_on": "Lemna minor", "assay": "Herbicide activity on Lemna minor in vitro, fresh weight reduction (Example 5)", "assay_type": "in vivo", "conditions": "all chemicals at 10 mg/L; 7-day exposure", "experimental": "The experiment was carried out in Lemna minor growing in vitro conditions. Lemna minor (duckweed) was bought in the local market. A stock culture was maintained on modified Hoagland medium in a controlled environment. The pH of the medium was adjusted to 6.0, and the plants were grown under static conditions in a plant growth chamber at 25±2° C., light/dark regime of 16 h/8 h.\nFor the experiments, fronds free from any visible chlorosis were taken from the stock cultures and exposed to the appropriate treatment. For each treatment, we used six repetitions with three fronds per repetition as the initial frond number. Individual fronds were transferred to a 12 well multiplate containing Hoagland medium (control), Hoagland medium containing polyferulates, herbicides or the combination as shown in Table 8. All chemicals were evaluated at the same concentration (10 mg/L). The multiplate was covered with a transparent cover to prevent evaporation. The herbicide activity was evaluated as fresh weight reduction compared to untreated plants after one week of incubation in the described conditions."}, "[8]": {"conditions": "pyraflufen-ethyl at 25% of recommended dose"}, "[9]": {"conditions": "pyraflufen-ethyl at 50% of recommended dose"}, "[10]": {"conditions": "pyraflufen-ethyl at 75% of recommended dose"}, "[11]": {"conditions": "pyraflufen-ethyl at 100% of recommended dose"}}}
{"molecule": "COc1cnc(OC)n2nc(NS(=O)(=O)c3c(OCC(F)F)cccc3C(F)(F)F)nc12", "note": "[Penoxsulam]", "values": [{"measurement": "Herbicide activity", "setting": "[1]; application rate 30 g a.i. ha^−1", "result": 16, "unit": "%"}]}
{"molecule": "Diferulic acid", "values": [{"measurement": "Desiccation (%)", "setting": "[2]; application rate 12", "result": 2, "unit": "%"}, {"measurement": "effect in combination with the herbicides tested (synergistic / antagonist)", "setting": "[2]", "result": "antagonist"}]}
{"molecule": "CCOC(=O)C(Cl)Cc1cc(-n2nc(C)n(C(F)F)c2=O)c(F)cc1Cl", "note": "(centres unmarked) [Carfentrazone-ethyl]", "values": [{"measurement": "Desiccation (%)", "setting": "[2]; application rate 30", "result": 73, "unit": "%"}, {"measurement": "Desiccation (%)", "setting": "[2]; application rate 60", "result": 96, "unit": "%"}, {"measurement": "Desiccation (%)", "setting": "[3]", "result": 56, "unit": "%"}]}
{"molecule": "CCCCCCCCC(=O)O", "note": "[Pelargonic acid]", "values": [{"measurement": "Desiccation (%)", "setting": "[2]; application rate 2720", "result": 51, "unit": "%"}, {"measurement": "Desiccation (%)", "setting": "[2]; application rate 5440", "result": 68, "unit": "%"}, {"measurement": "Desiccation (%)", "setting": "[2]; application rate 10880", "result": 95, "unit": "%"}]}
{"molecule": "CCOC(=O)COc1cc(-c2nn(C)c(OC(F)F)c2Cl)c(F)cc1Cl", "note": "[Pyraflufen-ethyl]", "values": [{"measurement": "Desiccation (%)", "setting": "[2]; application rate 5.3", "result": 60, "unit": "%"}, {"measurement": "Desiccation (%)", "setting": "[2]; application rate 10.6", "result": 78, "unit": "%"}, {"measurement": "Desiccation (%)", "setting": "[2]; application rate 15.9", "result": 85, "unit": "%"}, {"measurement": "Desiccation (%)", "setting": "[2]; application rate 21.2", "result": 90, "unit": "%"}, {"measurement": "Fresh weight of the plants (% of control)", "setting": "[4]; [8]", "result": "39 % of control"}, {"measurement": "Quantum yield of PSII", "setting": "[4]; [8]", "result": 0.6}, {"measurement": "Fresh weight of the plants (% of control)", "setting": "[4]; [9]", "result": "22 % of control"}, {"measurement": "Quantum yield of PSII", "setting": "[4]; [9]", "result": 0.461}, {"measurement": "Fresh weight of the plants (% of control)", "setting": "[4]; [10]", "result": "14 % of control"}, {"measurement": "Quantum yield of PSII", "setting": "[4]; [10]", "result": 0.385}, {"measurement": "Fresh weight of the plants (% of control)", "setting": "[4]; [11]", "result": "10 % of control"}, {"measurement": "Quantum yield of PSII", "setting": "[4]; [11]", "result": 0.335}, {"measurement": "Desiccation (%)", "setting": "[5]", "result": 79, "unit": "%"}, {"measurement": "pyraflufen-ethyl in Bound residues fraction", "setting": "[6]; 2 h after treatment", "result": "0.16 μg/g of fresh weight leaves"}, {"measurement": "pyraflufen-ethyl in Ethanol-extracted fraction", "setting": "[6]; 2 h after treatment", "result": "1.88 μg/g of fresh weight leaves"}, {"measurement": "pyraflufen-ethyl in Hexane-extracted fraction", "setting": "[6]; 2 h after treatment", "result": "0.51 μg/g of fresh weight leaves"}, {"measurement": "pyraflufen-ethyl in Water-washable fraction", "setting": "[6]; 2 h after treatment", "result": "3.34 μg/g of fresh weight leaves"}, {"measurement": "pyraflufen-ethyl in Bound residues fraction", "setting": "[6]; 24 h after treatment", "result": "0.12 μg/g of fresh weight leaves"}, {"measurement": "pyraflufen-ethyl in Ethanol-extracted fraction", "setting": "[6]; 24 h after treatment", "result": "1.59 μg/g of fresh weight leaves"}, {"measurement": "pyraflufen-ethyl in Hexane-extracted fraction", "setting": "[6]; 24 h after treatment", "result": "0.94 μg/g of fresh weight leaves"}, {"measurement": "pyraflufen-ethyl in Water-washable fraction", "setting": "[6]; 24 h after treatment", "result": "3.1 μg/g of fresh weight leaves"}]}
{"molecule": "CCCC(=NOCC(C)Oc1ccc(Cl)cc1)C1=C(O)CC(C2CCCSC2)CC1=O", "note": "(centres unmarked) [Profoxydim]", "values": [{"measurement": "Herbicide activity (fresh weight reduction compared to untreated plants)", "setting": "[7]", "result": 45}, {"measurement": "Herbicide activity", "setting": "[1]; application rate 110 g a.i. ha^−1", "result": 34, "unit": "%"}]}
{"molecule": "COC(=O)c1cccc(C)c1S(=O)(=O)NC(=O)Nc1nc(OCC(F)(F)F)nc(N(C)C)n1", "note": "[Triflusulfuron-methyl]", "values": [{"measurement": "Herbicide activity (fresh weight reduction compared to untreated plants)", "setting": "[7]", "result": 34}]}
{"molecule": "O=C(O)CNCP(=O)(O)O", "note": "[Glyphosate]", "values": [{"measurement": "Herbicide activity", "setting": "[1]; application rate 550 g a.i. ha^−1", "result": 59, "unit": "%"}]}
{"molecule": "CCOC1Oc2ccc(OS(C)(=O)=O)cc2C1(C)C", "note": "(centres unmarked) [Ethofumesate]", "values": [{"measurement": "Herbicide activity (fresh weight reduction compared to untreated plants)", "setting": "[7]", "result": 0}]}
{"molecule": "COc1cc(/C=C/C(=O)O)ccc1O", "note": "[Ferulic acid, (2E)-3-(4-hydroxy-3methoxyphenyl)prop-2-enoic acid]", "values": [{"measurement": "Desiccation (%)", "setting": "[2]; application rate 12", "result": 3, "unit": "%"}, {"measurement": "effect in combination with the herbicides tested (synergistic / antagonist)", "setting": "[2]", "result": "antagonist"}]}
{"molecule": "COC(=O)Nc1cccc(OC(=O)Nc2cccc(C)c2)c1", "note": "[Phenmedipham]", "values": [{"measurement": "Herbicide activity (fresh weight reduction compared to untreated plants)", "setting": "[7]", "result": 3}]}
